Source: US20040038855A1 (priority 1999, published 2004)
Counter-ions that a name gives are not always drawn.

What was measured:
human MCH1 receptor = human MCH1 receptor (Homo sapiens, UniProt Q99705); test: Intracellular calcium response to MCH in COS-7 cells transfected with MCH1 (fluo-3, FLIPR): antagonist potency; assay type: cell-based; parameters: expressed in transfected cells; host or cells: COS-7; conditions: read-out: Kb (nM) hMCH1
From the text: MCH1 antagonist compounds were identified by their ability to inhibit the MCH-elicited response. […]. From the IC50 values, the antagonist potency (Kb)was derived using the Cheng-Prussof correction (Lazareno and Birdsall, 1993). […]

human GALR3 receptor = biological target: T1, human GALR3 receptor (Homo sapiens, UniProt O60755); test: Binding affinity at the human GALR3 receptor; conditions: Table 3a; read-out: hGALR3 Ki
T1 construct: expressed in transfected cells
T1 sequence (O60755 1-368): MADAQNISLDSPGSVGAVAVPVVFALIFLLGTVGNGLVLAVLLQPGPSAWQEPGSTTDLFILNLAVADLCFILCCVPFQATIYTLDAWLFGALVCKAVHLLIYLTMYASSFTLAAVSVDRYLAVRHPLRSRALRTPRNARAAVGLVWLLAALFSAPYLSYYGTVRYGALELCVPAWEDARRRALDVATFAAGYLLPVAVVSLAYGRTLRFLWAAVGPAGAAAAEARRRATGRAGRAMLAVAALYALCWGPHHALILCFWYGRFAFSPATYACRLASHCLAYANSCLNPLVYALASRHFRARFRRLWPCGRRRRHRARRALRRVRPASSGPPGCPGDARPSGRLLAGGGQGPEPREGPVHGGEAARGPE
From the text: (§1) The design of such compounds can be optimized by determining their binding affinity at the recombinant MCH1, NPY1, NPY2, Gal1, Gal2, Gal3, and 5HT2C receptors. The methods to obtain the cDNA of the receptor, express said receptors in heterologous systems, and carry out assays to determine binding affinity are described in the following publications: human NPY1 (Larhammar et al., 1992), human NPY5 (U.S. Pat. No. 5,602,024, the disclosure of which is hereby incorporated by reference in its entirety into this application), human Gall (Habert-Ortoli et al., 1994), human Gal2 (Smith et al., 1997), human Gal3 (Smith et al., 1998), and rat 5HT2C (Julius et al., 1988). Additionally, the compounds would optimally not bind at the following receptors due to possible side effects: human H1 histamine and human H2 histamine receptors; human alpha-1A adrenergic, human alpha-1D adrenergic, human alpha-2A adrenergic, human alpha-2B adrenergic, and human alpha-2C adrenergic receptors; human dopamine D1, D2, D3, D4, and D5 receptors; the β-adrenoceptor; and the human 5HT1A, human 5HT1B, human 5HT1D, human 5HT1E, human 5HT1F, human 5HT2A, rat 5HT2C, human 5HT4, human 5HT6, and human 5HT7 receptors.

rat 5HT2C receptor = biological target: T2, rat 5HT2C receptor (Rattus norvegicus, UniProt P08909); test: Binding affinity at the rat 5HT2C receptor; conditions: Table 3a; read-out: r5HT2C Ki
T2 construct: expressed in transfected cells
T2 sequence (P08909 33-460): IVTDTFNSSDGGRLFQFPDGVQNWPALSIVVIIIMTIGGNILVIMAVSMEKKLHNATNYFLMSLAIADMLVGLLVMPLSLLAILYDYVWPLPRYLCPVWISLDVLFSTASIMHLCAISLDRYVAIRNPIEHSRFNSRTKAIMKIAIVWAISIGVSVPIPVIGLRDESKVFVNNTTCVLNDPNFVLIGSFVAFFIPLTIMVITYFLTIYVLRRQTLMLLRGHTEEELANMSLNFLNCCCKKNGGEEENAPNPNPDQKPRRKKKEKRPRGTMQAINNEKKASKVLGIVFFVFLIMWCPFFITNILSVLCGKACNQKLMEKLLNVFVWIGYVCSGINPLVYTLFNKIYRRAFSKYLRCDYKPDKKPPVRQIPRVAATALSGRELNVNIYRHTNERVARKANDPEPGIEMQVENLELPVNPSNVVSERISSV
From the text: as §1
Other 5HT Receptors: Other serotonin receptor binding assays were performed according to published methods: rat 5HT2C receptor (Julius et al., 1988); and 5HT6 (Monsma, et al., 1993). The binding assays using the 5HT4 receptor were performed according to the procedures described in U.S. Pat. No. 5,766,879, the disclosure of which is hereby incorporated by reference in its entirety into this application.

human GALR1 receptor = biological target: T3, human GALR1 receptor (Homo sapiens, UniProt P47211); test: Binding affinity at the human GALR1 receptor; conditions: Table 3a; read-out: hGALR1 Ki
T3 construct: expressed in transfected cells
T3 sequence (P47211 1-349): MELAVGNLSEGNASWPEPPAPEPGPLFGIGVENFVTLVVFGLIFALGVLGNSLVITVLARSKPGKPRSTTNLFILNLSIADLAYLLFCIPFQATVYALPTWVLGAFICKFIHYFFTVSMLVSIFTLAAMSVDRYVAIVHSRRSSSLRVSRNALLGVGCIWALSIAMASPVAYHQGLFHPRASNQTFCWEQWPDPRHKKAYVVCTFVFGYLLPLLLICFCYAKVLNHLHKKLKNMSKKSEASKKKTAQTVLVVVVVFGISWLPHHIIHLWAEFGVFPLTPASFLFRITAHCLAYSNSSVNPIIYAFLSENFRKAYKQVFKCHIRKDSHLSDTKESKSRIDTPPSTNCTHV
From the text: as §1

human GALR2 receptor = biological target: T4, human GALR2 receptor (Homo sapiens, UniProt O43603); test: Binding affinity at the human GALR2 receptor; conditions: Table 3a; read-out: hGALR2 Ki
T4 construct: expressed in transfected cells
T4 sequence (O43603 1-387): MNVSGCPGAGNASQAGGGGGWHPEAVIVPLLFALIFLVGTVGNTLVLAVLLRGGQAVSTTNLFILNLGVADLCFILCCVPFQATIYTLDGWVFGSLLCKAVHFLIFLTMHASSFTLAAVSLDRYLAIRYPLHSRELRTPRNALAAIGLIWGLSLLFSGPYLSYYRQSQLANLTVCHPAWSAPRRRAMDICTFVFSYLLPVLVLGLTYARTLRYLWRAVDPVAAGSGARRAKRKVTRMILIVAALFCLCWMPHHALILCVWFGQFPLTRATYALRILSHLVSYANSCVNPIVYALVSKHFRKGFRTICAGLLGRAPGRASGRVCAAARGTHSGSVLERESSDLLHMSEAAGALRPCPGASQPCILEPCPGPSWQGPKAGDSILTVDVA
From the text: as §1

human NPY5 receptor = biological target: T5, human NPY5 receptor (Homo sapiens, UniProt Q15761); test: Binding affinity at the human NPY5 receptor; conditions: Table 3a; read-out: hNPY5 Ki
T5 construct: expressed in transfected cells
T5 sequence (Q15761 1-445): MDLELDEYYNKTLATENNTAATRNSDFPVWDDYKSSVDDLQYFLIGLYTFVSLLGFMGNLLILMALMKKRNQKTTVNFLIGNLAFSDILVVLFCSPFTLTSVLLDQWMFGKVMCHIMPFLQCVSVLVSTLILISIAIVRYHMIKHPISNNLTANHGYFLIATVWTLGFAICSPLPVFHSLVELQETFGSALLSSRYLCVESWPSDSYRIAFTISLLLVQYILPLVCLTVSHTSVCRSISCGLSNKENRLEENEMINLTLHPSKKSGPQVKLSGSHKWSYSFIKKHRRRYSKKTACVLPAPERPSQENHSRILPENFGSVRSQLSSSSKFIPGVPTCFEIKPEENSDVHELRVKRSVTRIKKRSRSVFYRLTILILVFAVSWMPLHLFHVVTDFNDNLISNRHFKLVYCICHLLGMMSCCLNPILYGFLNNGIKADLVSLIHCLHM
From the text: as §1

human NPY1 receptor = biological target: T6, human NPY1 receptor (Homo sapiens, UniProt P25929); test: Binding affinity at the human NPY1 receptor; conditions: Table 3a; read-out: hMPY1 Ki
T6 construct: expressed in transfected cells
T6 sequence (P25929 1-384): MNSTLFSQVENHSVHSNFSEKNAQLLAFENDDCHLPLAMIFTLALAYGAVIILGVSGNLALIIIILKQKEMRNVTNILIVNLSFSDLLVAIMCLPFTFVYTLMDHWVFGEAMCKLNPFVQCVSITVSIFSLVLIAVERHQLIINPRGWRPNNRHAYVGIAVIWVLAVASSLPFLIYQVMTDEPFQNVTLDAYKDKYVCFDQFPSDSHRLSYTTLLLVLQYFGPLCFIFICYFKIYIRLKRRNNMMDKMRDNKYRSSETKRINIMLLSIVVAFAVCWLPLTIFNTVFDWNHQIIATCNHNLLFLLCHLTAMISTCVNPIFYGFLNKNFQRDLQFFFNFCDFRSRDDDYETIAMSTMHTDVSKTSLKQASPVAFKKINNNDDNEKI
From the text: as §1

human MCH1 receptor, sequence (Q99705 whole entry): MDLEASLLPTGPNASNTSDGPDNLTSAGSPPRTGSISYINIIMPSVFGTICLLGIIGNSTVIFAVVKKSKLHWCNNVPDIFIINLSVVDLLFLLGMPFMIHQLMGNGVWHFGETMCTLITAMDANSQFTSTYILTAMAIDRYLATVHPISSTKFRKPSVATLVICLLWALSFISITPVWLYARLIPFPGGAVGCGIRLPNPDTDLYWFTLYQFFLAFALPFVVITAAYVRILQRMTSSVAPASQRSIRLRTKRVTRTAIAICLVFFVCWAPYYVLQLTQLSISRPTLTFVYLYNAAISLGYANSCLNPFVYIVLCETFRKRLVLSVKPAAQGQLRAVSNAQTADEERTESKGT

SMILES	Kb (human MCH1 receptor) [nM]	Ki (human GALR3 receptor) [µM]	Ki (rat 5HT2C receptor) [µM]	Ki (human GALR1 receptor) [µM]	Ki (human GALR2 receptor) [µM]	Ki (human NPY5 receptor) [µM]	Ki (human NPY1 receptor) [µM]
CC(=O)C1=C(C)NC(=O)N(C(=O)NCCCN2CCC(c3ccc(F)cc3)CC2)C1c1cc(F)c(F)c(F)c1 (single isomer, unassigned; (+)) [Example 12, (+)-1,2,3,6-TETRA HYDRO-1-{N-[4-(4-FLUOROPHENYL)-PIPERIDINE-1-YL]-PROPYL]CARBOXAMIDO-5-ACETYL-2-OXO-6-(3,4,5-TRI FLUORO PHENYL)-4-METHYL PYRIMIDINE HYDROCHLORIDE]	29						
CCC1=C(C(N)=O)C(c2ccc(F)c(F)c2)N(C(=O)NCCCN2CCC3(CC2)OCc2ccccc23)C(=O)N1 (single isomer, unassigned; (+)) [Example 22, (+)-1,2,3,6-TETRAHYDRO-1-{N-[4-(BENZO-4′,5′(H)FURAN)PIPERIDIN-1-YL]PROPYL}CARBOXAMIDO-4-ETHYL-6-(3,4-DIFLUOROPHENYL)-2-OXO-PYRIMIDINE-5-CARBOXAMIDE HYDROCHLORIDE]	40						
CCN1c2ccc(/C=C3\SC(=S)NC3=O)cc2C(C)=CC1(C)C [Example 25]		> 50	41	> 50	> 50	> 50	
Fc1ccc(C(c2ccc(F)cc2)N2CCN(C/C=C/c3ccccc3)CC2)cc1 [Example 26, 1-[BIS(4-FLUOROPHENYL)METHYL]-4-(3-PHENYL-2-PROPENYL)PIPERAZINE]		> 50		> 50	> 50	> 50	> 50
Cc1cc(O)cc(O)c1/C=N/c1ccc(-c2cn3ccccc3n2)cc1 [Example 27]		> 50	> 50	> 50	> 50	> 50	> 50
O=C(CCCN1CCC(NC(=O)c2ccccc2)CC1)c1ccc(Cl)cc1 [Example 28, [3-(4-CHLOROBENZOYL)]PROPYL-4-BENZAMIDOPIPERIDINE]		> 50	34.1	> 50	> 50	> 50	
CN1CN(c2ccccc2)C2(CCN(CCCC(=O)c3ccc(F)cc3)CC2)C1=O [Example 30, N-METHYL-8-[4-(4-FLUOROPHENYL)-4-OXOBUTYL]-1-PHENYL-1,3,8-TRI-[4.5]DECAN-4-ONE]		> 50	8.86	> 50	> 50	> 50	> 50

Results, then the compound that gave them:

Kb (human MCH1 receptor) [nM]	Ki (human GALR3 receptor) [µM]	Ki (rat 5HT2C receptor) [µM]	Ki (human GALR1 receptor) [µM]	Ki (human GALR2 receptor) [µM]	Ki (human NPY5 receptor) [µM]	Ki (human NPY1 receptor) [µM]	SMILES
41							CCn1c(=O)n(C2CCN(CCCNC(=O)N3C(=O)NC(C)=C(C(=O)OC)C3c3ccc(F)c(F)c3)CC2)c2ccccc21 (single isomer, unassigned; (+)) [Example 7, (+)-1,2,3,6-TETRAHYDRO-1-{N-[4-(N′-ETHYL)-N-BENZIMIDAZOLYL-PIPERIDIN-1YL]PROPYL}CARBOXAMIDO-4-METHYL-6-(3,4-DIFLUOROPHENYL)-2-OXOPYRIMIDINE HYDROCHLORIDE]
289							COCC1=C(C(=O)OC)C(c2ccc(F)c(F)c2)N(C(=O)NCCCN2CCC(c3cc(F)ccc3OC)CC2)C(=O)N1 (single isomer, unassigned; (+)) [Example 15]
373							COCC1=C(C(=O)OC)C(c2ccc(F)c(F)c2)N(C(=O)NCCCN2CCC(c3ccccn3)CC2)C(=O)N1 (single isomer, unassigned; (+)) [Example 17, (+)-6-(3,4-DIFLUOROPHENYL)-1-{N-[4-(2-PYRIDYL)PIPERIDIN-1-YL]-PROPYL}CARBOXAMIDO-5-METHOXYCARBONYL-4-METHOXYMETHYL-2-OXO-1,2,3,6-TETRAHYDROPYRIMIDINE DIHYDROCHLORIDE]
12							COCC1=C(C(=O)OC)C(c2ccc(F)c(F)c2)N(C(=O)NCCCN2CCC(c3cc(F)c(F)c(F)c3)CC2)C(=O)N1 (single isomer, unassigned; (+)) [Example 33, (+)-1,2,3,6-TETRAHYDRO-1-{N-[4-(3,4,5-TRIFLUORO)-PHENYL-PIPERIDIN-1-YL]PROPYL}CARBOXAMIDO-4-METHOXYMETHYL-6-(3,4-DIFLUOROPHENYL)-2-OXOPYRIMIDINE-5-CARBOXYLIC ACID METHYL ESTER]
